# According to US10660789B2, “1,4-dihydropyridine derivatives with HSP modulating activity” (Richter Gedeon NYRT., priority 2011, dated 2020):
# Counter-ions that a name gives are not always drawn.
# Key:
# Hsp70 promoter = test: Hsp70 promoter-YFP reporter in SHSY5Y cells, flow cytometry; type: cell-based, human
# Method: (§1) The Hsp co-inducing effect of the compounds on stress response was tested on B16 mouse melanoma and SHSY5Y human neuroblastoma cell lines stably transfected with Hsp promoter probing plasmids. This kind of promoter probing, using the promoter region of a given gene conjugated with fluorescent protein is used as a best and fastest test system for finding drugs which modulate the activity of the gene followed by the given promoter (Wyshocka et al., Mol. Cel. Biochem. 215:153-156, 2000).
# (§2) Reporter plasmids, containing the Hsp70 and/or Hsp25 promoter conjugated to either YFP or GFP (yellow or green fluorescent protein), were stably transfected into the cells and the expression of YFP or GFP was followed by flow cytometry. Cells were either kept at 37° C. or exposed to heat shock at 42° C. for 1 hour followed by a 16 hour recovery period at 37° C. in the presence or absence of different concentrations of the test compound. After recovery the expression of YFP or GFP which is in straight correlation with the promoter activity of Hsp70 or Hsp27 genes was followed by measuring the fluorescence intensity of the cells by flow cytometry. Fluorescence intensity is in straight correlation with the amount of fluorescent protein (GFP or YFP) produced under the control of hsp promoter. The mean fluorescence intensity of YFP or GFP produced is shown as “Hsp promoter activity”.
# The fluorescence intensity of YFP produced as a result of Hsp70 promoter activity was measured by flow cytometry.
# (§3) Cells were homogenously distributed on 6-well plates in 1×10^5 cells/well density. B16-pHsp25-GFP and B16-pHsp70-YFP melanoma cells were grown in RPMI-1640 medium supplemented with 10% Fetal bovine serum (FBS), penicillin (200 units/ml), streptomycin (200 μg/ml) and 2 mM L-Glutamine. […] The changes in cells' fluorescence were detected using BD FACSCalibur flow cytometer.
# Hsp25 promoter = test: Hsp25 promoter-GFP reporter in SHSY5Y cells, flow cytometry; type: cell-based, human; conditions: FIG. 2
# Method: as §1, §2
# The fluorescence intensity of GFP and YFP […].
# Selectivity of the Hsp25 co-inducing activity of compound of Ex. 11 is shown on FIG. 3. […] The fluorescence intensity of GFP produced as a result of Hsp25 promoter activity was measured by flow cytometry.
# as §3
# Hsp25 = test: Other in vitro effects, Hsp25 (Table 3); type: cell-based, mouse and human; parameters: key: +: co-inducing activity; −: silencing activity; 0: with the experimental methods applied no other HSP modulating effects could be identified
# Method: as §1, §2, §3
# SY-SY5Y and B16 cells were extracted in NP-40 lysis buffer (PBS pH 7.4, 1% protease inhibitor coctail and 1% Triton X-100). […] The immune complexes were detected with chemo-luminescent substrate of peroxidase according to the supplier's instructions. Images taken from the membranes were analyzed using AlphaEase FC software.
# B16F10 melanoma cells = test: Lysosomal destabilization, FITC-conjugated dextran fluorescence; type: cell-based, mouse
# Description: Emerging evidence argues that both classic apoptosis pathways and lysosomal death pathways must be suppressed for effective development and progression of cancer. Tumor invasion and metastasis are associated with altered lysosomal trafficking and increased expression of the lysosomal proteases termed cathepsins. […] Normal cells respond to death stimuli by undergoing caspase-dependent apoptosis, the best characterized form of programmed cell death. In contrast, cancer cells frequently escape spontaneous and therapy-induced caspase activation due to acquired mutations in the apoptotic machinery. Apoptosis-resistant cancer cells are, however, not completely resistant to cell death, but can die via alternative cell death pathways often involving non-caspase proteases such as lysosomal cathepsins. Therefore, development of novel anticancer drugs that can trigger alternative death pathways that are independent of commonly mutated apoptosis-regulating genes is of great importance. […] Lysosomal destabilization could be followed by measuring the fluorescence intensity of the pH sensitive FITC-conjugated dextran. Lysosomal pH was determined by allowing the B16F10 melanoma cells to endocytose different amount of FITC-conjugated dextran (40 kDa) (from 10 mg/ml stock) for 24 h. […] Fluorescence was measured by plate reader using an excitation and emission wavelengths of 485 nm and 538 nm respectively.
smiles,measurement,setting,value
"COC(=O)C1=C(CCN(C)C)N(C)C(CCN(C)C)=C(C(=O)OC)C1c1ccc(C(F)(F)F)cc1 [Example 23, Dimethyl 4-(4-trifuoromethylphenyl)-2,6-bis-(2-dimethylaminoethyl)-1-methyl-1,4-dihydropyridine-3,5-dicarboxylate dihydrochloride]",induction of Hsp70 gene activity,"Hsp70 promoter; 20 μM, SHSY5Y cells at 42° C., FIG. 1",approximately 20 times
same,activity of the promoter of the hsp70 gene at 37° C.,"Hsp70 promoter; SHSY5Y cells, 37° C., no heat stress",does not affect the activity of the promoter of the hsp70 gene at 37 °C
same,increase in HSP70 expression,"Hsp70 promoter; SHSY5Y cells, relative to cells treated at 42° C. without the compound, FIG. 2",23 fold
same,effect on the expression of Hsp25,Hsp25 promoter,no effect on the expression of Hsp25
same,Other in vitro effects: Hsp25,Hsp25,Hsp25 0
same,Other in vitro effects (lysosomes),B16F10 melanoma cells,lysosome destabilization
same,"fluorescence intensity of FITC-conjugated dextran (lysosomal pH, lysosomal destabilization)","B16F10 melanoma cells; Ex. 23 5 μM for 6 hours, compared to Siramesine (20 μm), FIG. 9",significantly higher fluorescence intensity
